Marks after values point to notes of the source that are not given here.
How the values were obtained:
[1] = tested on: Rabbit cartilage explants; test: Ex vivo glycosaminoglycans (GAG) release assay; type: cell-based; details: for activity at 6.25 µg/mL / activity at 12.5 µg/mL / activity at 25 µg/mL / activity at 50 µg/mL / activity at 100 µg/mL: Oryctolagus cuniculus, 24 h; for activity at 6.25 µg/mL: 6.25 μg/ml; for activity at 12.5 µg/mL: 12.5 μg/ml; for activity at 25 µg/mL: 25 μg/ml; for activity at 50 µg/mL: 50 μg/ml; for activity at 100 µg/mL: 100 μg/ml; for protective effect on rhIL-1α-mediated PG degradation / GAG release: rhIL-1α 5 ng/ml
Method: Articular cartilage from hock joints of rabbits (2.5 kg body weight) was removed immediately after each animal was sacrificed and articular cartilage explants were obtained by following the method described by Sandy et al. (Biochem. Biophy Acta 543:36, 1978). Briefly, after the articular surfaces were surgically exposed under sterile conditions, approximately 200-220 mg articular surfaces per joint were dissected and submerged into complete medium (DMEM, supplemented with heat inactivated 5% FBS; penicillin 100 U/ml; streptomycin 100 ug/ml). They were then rinsed several times with the complete medium and incubated for 1 to 2 days at 37° C. in a humidified 5% CO2/95% air incubator for stabilization. The complete medium was replaced with a basal medium (DMEM, supplemented with heat-inactivated 1% FBS, 10 mM HEPES, and penicillin 100 U/ml streptomycin 100 μg/ml). Approximately 30 mg cartilage pieces (2×3×0.35 mm/piece) were placed in 24-well plates and treated with given concentrations of test agents. After pretreatment for 1 h, 5 ng/ml of rhIL-1α was added to the culture medium and further incubated at 37° C. in a humidified 5% CO2/95% air incubator. The culture medium was collected 24 h later and stored at −20° C. until assay.
The amount of sulphated GAGs (e.g., released from proteoglycans) in the medium at the end of the reaction reflects the amount of articular cartilage degradation, which was determined using the commercially available 1,9-dimethy-methylene blue method according to the instructions of the manufacturer (Blyscan™ assay, Accurate Chemical and Scientific Corp., Westbury, N.Y.).

Sprague-Dawley (SD) rats = test: Monosodium iodoacetate (MIA) induced osteoarthritis rat model; type: in vivo; details: for reduction in pain sensitivity: 10 mg/kg oral per day; for Pain sensitivity, % (of week 0 mean) / Pain sensitivity, Mean: oral 10 mg/kg
Method: The animals were randomized and assigned to treatment groups before the study began. After anesthetization with isoflurane, rats were injected with 50 μl containing 1 mg Monosodium iodoacetate (Sigma, St. Louis, Mo.; lot #SLBB6147V) using a 26 gauge needle inserted through the patellar ligament into the intra-articular space of the right knee. Normal rats were injected with an equivalent volume of saline instead of MIA. […] The first sample treatment was administered 1 hr before MIA injection. Normal and control rats were given orally an equal volume of vehicle (0.5% CMC in saline). Body weight and allodynia were measured once a week for 4 weeks. Allodynia was evaluated by measuring responsiveness to a tip of Randall-Selitto test (2390 series, IITC, Woodland Hills, Calif.) applied perpendicular to the central plantar surface of the right hind paw.
Male Sprague—Dawley (SD) rats weighing about 170 to about 230 g (6 weeks of age) were purchased and acclimated for one week. […] Each group was orally gavaged with their respective treatment. Anesthetized rats were injected with 0.8 mg of MIA in a 50 μl saline solution into the intra-articular pocket one hour after the second dose of treatments. Pain sensitivity was measured once a week using a Randall-Salitto meter and treatment lasted for 6 weeks. Body weights were measured once a week to calculate the respective weekly dosage of each group.

Lewis rats = test: Carrageenan-induced rat paw edema model (paw edema and pain sensitivity); type: in vivo; details: for Pain sensitivity (Analgesia), percent change vs. vehicle, 1 hr / Paw Edema (Inflammation), percent change vs. vehicle, 1 hr: 1 hr after treatment; for Pain sensitivity (Analgesia), percent change vs. vehicle, 3 hr / Paw Edema (Inflammation), percent change vs. vehicle, 3 hr: 3 hr after treatment; for Pain sensitivity (Analgesia), percent change vs. vehicle, 5 hr / Paw Edema (Inflammation), percent change vs. vehicle, 5 hr: 5 hr after treatment; for analgesic and anti-inflammatory activity: oral, rosmarinic acid 200 mg/kg, eriocitrin 100 mg/kg, NAG 166 mg/kg; for Pain sensitivity, percent change of vehicle / Paw edema, percent change of vehicle: 100 mg/kg oral 1 hr after carrageenan, female Lewis rats
Method: Local inflammation was induced by intraplantar injection of carrageenan λ (Sigma, St. Louis, Mo.; 100 μl of 1% [w/v] in saline) into the plantar surface of right hind paw of sedated rat (with 2.5% isoflurane) at time 0 (T=0) (Gamache et al., J Neurosurg. 65:679, 1986; Guay et al., J. Biol. Chem. 279:24866, 2004; Chou et al., Anesth. Analg. 97:1724, 2003). Rats were acclimated in a procedure room for 20-30 minutes before each measurement was taken. Allodynia was evaluated by measuring responsiveness to the tip of a Randell-Selitto paw pressure test applied perpendicular to the central plantar surface of the right hind paw. A positive response to the applied pressure, noted by sharp withdrawal of the paw, was recorded automatically by an electronic Von Frey Anesthesiometer (2390 series Electrovonfrey, IITC, Woodland Hills, Calif.) (Vivancos et al., Braz. J. Med. Biol. Res. 37:391, 2004). Mechanical allodynia was evaluated before carrageenan inoculation, and thereafter at 1 hr, 2 hr, 4 hr and 6 hr. Paw edema volume was measured with the use of Plethysmometer (IITC, Woodland Hills, Calif.; Model 520) at time 0 (before carrageenan), and then 1 hr, 2 hr, 4 hr, and 6 hr after carrageenan injection. Animals (N=5 per group) were orally gavaged with a positive control ibuprofen (Spectrum Chemical MFG, Gardena, Calif.) (100 or 200 mg/kg); test articles such as: extracts, and combinations of extracts at various doses from 100, 200, 300 to 400 mg/kg and vehicle control (propylene glycol) were given 1 hour after carrageenan inoculation unless specified otherwise.

[2] = rabbit cartilage explants with rhIL-1α 5 ng/ml (=100)
[3] = MIA OA rats, 10 mg/kg oral, 6 weeks, modified Mankin scoring
[4] = 100 mg/kg oral, listed as eriocitrin
[5] = rhIL-1α 5 ng/ml (IL-1α alone = 100)

SMILES: COc1cc(O)c(CC=C(C)C)c(O)c1C(=O)/C=C/c1ccc(O)cc1 [Compound 13, xanthohumol]
- activity at 6.25 µg/mL [1, 2]: 77.4%
- activity at 12.5 µg/mL [1, 2]: 55.3%
- activity at 25 µg/mL [1, 2]: 59.2%
- activity at 50 µg/mL [1, 2]: 51.2%

SMILES: COc1cc(O)c(CC=C(C)C)c2c1C(=O)CC(c1ccc(O)cc1)O2 (centres unmarked) [Compound 14, isoxanthohumol]
- activity at 6.25 µg/mL [1, 2]: 97.8%
- activity at 12.5 µg/mL [1, 2]: 73.5%
- activity at 25 µg/mL [1, 2]: 41.7%
- activity at 50 µg/mL [1, 2]: 37.3%

SMILES: CC(C)=CCC12Oc3c(c(O)cc(O)c3C3C=C(C)CC(c4ccc(O)cc4O)C3C(=O)c3ccc(O)cc3O)C(=O)C1(O)Oc1cc(O)ccc12 (centres unmarked) [Compound 15, cathayanon A]
- activity at 6.25 µg/mL [1, 2]: 101%
- activity at 12.5 µg/mL [1, 2]: 99.1%
- activity at 25 µg/mL [1, 2]: 81.3%
- activity at 50 µg/mL [1, 2]: 72.4%

SMILES: O=C(O)Cc1ccccc1Nc1c(Cl)cccc1Cl [Diclofenac]
- reduction in pain sensitivity (Sprague-Dawley (SD) rats; week 5): 20.8%
- reduction in pain sensitivity (Sprague-Dawley (SD) rats; week 6): 18.2%
- articular cartilage matrix integrity, total Mankin score vs. vehicle (Sprague-Dawley (SD) rats; G:M 500 mg/kg, Diclofenac 10 mg/kg, 6 weeks): not statistically significant
- Total Mankin Score (Sprague-Dawley (SD) rats; MIA OA rats, 10 mg/kg oral, 6 weeks): 4.9 ± 2.69
- Cellular Abnormality (0-3) histopathological score (Sprague-Dawley (SD) rats; [3]): 1.3 ± 0.67
- Safranin-O Staining (0-4) histopathological score (Sprague-Dawley (SD) rats; [3]): 1.7 ± 0.82
- Pain sensitivity, % (of week 0 mean) (Sprague-Dawley (SD) rats; MIA OA rats, Week 0): 100.00%
- Pain sensitivity, Mean (Sprague-Dawley (SD) rats; MIA OA rats, Week 0, Randall-Salitto meter): 173.20
- Pain sensitivity, % (of week 0 mean) (Sprague-Dawley (SD) rats; MIA OA rats, Week 1): 84.51%
- Pain sensitivity, Mean (Sprague-Dawley (SD) rats; MIA OA rats, Week 1, Randall-Salitto meter): 146.37
- Pain sensitivity, % (of week 0 mean) (Sprague-Dawley (SD) rats; MIA OA rats, Week 2): 89.88%
- Pain sensitivity, Mean (Sprague-Dawley (SD) rats; MIA OA rats, Week 2, Randall-Salitto meter): 155.67
- Pain sensitivity, % (of week 0 mean) (Sprague-Dawley (SD) rats; MIA OA rats, Week 3): 94.05%
- Pain sensitivity, Mean (Sprague-Dawley (SD) rats; MIA OA rats, Week 3, Randall-Salitto meter): 162.90
- Pain sensitivity, % (of week 0 mean) (Sprague-Dawley (SD) rats; MIA OA rats, Week 4): 87.12%
- Pain sensitivity, Mean (Sprague-Dawley (SD) rats; MIA OA rats, Week 4, Randall-Salitto meter): 150.90
- Pain sensitivity, % (of week 0 mean) (Sprague-Dawley (SD) rats; MIA OA rats, Week 5): 84.43%
- Pain sensitivity, Mean (Sprague-Dawley (SD) rats; MIA OA rats, Week 5, Randall-Salitto meter): 146.23
- Pain sensitivity, % (of week 0 mean) (Sprague-Dawley (SD) rats; MIA OA rats, Week 6): 83.28%
- Pain sensitivity, Mean (Sprague-Dawley (SD) rats; MIA OA rats, Week 6, Randall-Salitto meter): 144.23

SMILES: C[C@@H]1O[C@@H](OC[C@H]2O[C@@H](Oc3cc(O)c4c(c3)O[C@H](c3ccc(O)c(O)c3)CC4=O)[C@H](O)[C@@H](O)[C@@H]2O)[C@H](O)[C@H](O)[C@H]1O [Eriocitrin]
- Pain sensitivity (Analgesia), percent change vs. vehicle, 1 hr (Lewis rats; 100 mg/kg oral): 20.4* %
- Paw Edema (Inflammation), percent change vs. vehicle, 1 hr (Lewis rats; 100 mg/kg oral): 17.2%
- Pain sensitivity (Analgesia), percent change vs. vehicle, 1 hr (Lewis rats; [4]): 20.4%
- Pain sensitivity (Analgesia), percent change vs. vehicle, 3 hr (Lewis rats; 100 mg/kg oral): 36.4* %
- Paw Edema (Inflammation), percent change vs. vehicle, 3 hr (Lewis rats; 100 mg/kg oral): 36.0* %
- Pain sensitivity (Analgesia), percent change vs. vehicle, 3 hr (Lewis rats; [4]): 36.4%
- Paw Edema (Inflammation), percent change vs. vehicle, 3 hr (Lewis rats; [4]): 36.0%
- Pain sensitivity (Analgesia), percent change vs. vehicle, 5 hr (Lewis rats; 100 mg/kg oral): 25.2* %
- Paw Edema (Inflammation), percent change vs. vehicle, 5 hr (Lewis rats; 100 mg/kg oral): 30.0* %
- Pain sensitivity (Analgesia), percent change vs. vehicle, 5 hr (Lewis rats; [4]): 25.2%
- Paw Edema (Inflammation), percent change vs. vehicle, 5 hr (Lewis rats; [4]): 30.0%
- analgesic and anti-inflammatory activity (Lewis rats): significant anti-inflammatory and analgesic activities

SMILES: CC(C)=CCc1c(-c2ccc(O)cc2O)oc2c(C3C=C(C)CC(c4ccc(O)cc4O)C3C(=O)c3ccc(O)cc3O)c(O)cc(O)c2c1=O (centres unmarked) [Kuwanon G]
- Pain sensitivity, percent change of vehicle (Lewis rats; 1 hr): 33.3* %
- Paw edema, percent change of vehicle (Lewis rats; 1 hr): 36.5* %
- Pain sensitivity, percent change of vehicle (Lewis rats; 3 hr): 40.5* %
- Paw edema, percent change of vehicle (Lewis rats; 3 hr): 37.7* %
- Pain sensitivity, percent change of vehicle (Lewis rats; 5 hr): 31.2* %
- Paw edema, percent change of vehicle (Lewis rats; 5 hr): 29.3* %
- activity at 25 µg/mL [1, 5]: 56.6%
- activity at 50 µg/mL [1, 5]: 48%
- activity at 100 µg/mL [1, 5]: 44.4%

SMILES: CC(C)=CCc1c(-c2ccc(O)cc2O)oc2c3c(cc(O)c2c1=O)OC(C)(C)C=C3 [Morusin]
- Pain sensitivity, percent change of vehicle (Lewis rats; 1 hr): 33.3* %
- Paw edema, percent change of vehicle (Lewis rats; 1 hr): 37.3* %
- Pain sensitivity, percent change of vehicle (Lewis rats; 3 hr): 38.5* %
- Paw edema, percent change of vehicle (Lewis rats; 3 hr): 40.0* %
- Pain sensitivity, percent change of vehicle (Lewis rats; 5 hr): 30.2* %
- Paw edema, percent change of vehicle (Lewis rats; 5 hr): 38.0* %
- activity at 25 µg/mL [1, 5]: 48.4%
- activity at 50 µg/mL [1, 5]: 49.9%
- activity at 100 µg/mL [1, 5]: 33.6%
- protective effect on rhIL-1α-mediated PG degradation / GAG release [1]: strong inhibitory effect

SMILES: OC[C@H]1O[C@@H](Oc2cc(O)cc(/C=C/c3ccc(O[C@@H]4O[C@H](CO)[C@@H](O)[C@H](O)[C@H]4O)cc3O)c2)[C@H](O)[C@@H](O)[C@@H]1O [Mulberoside A, mulberroside A]
- Pain sensitivity, percent change of vehicle (Lewis rats; 1 hr): 54.2* %
- Paw edema, percent change of vehicle (Lewis rats; 1 hr): 48.4* %
- Pain sensitivity, percent change of vehicle (Lewis rats; 3 hr): 52.2* %
- Paw edema, percent change of vehicle (Lewis rats; 3 hr): 50.6* %
- Pain sensitivity, percent change of vehicle (Lewis rats; 5 hr): 35.5* %
- Paw edema, percent change of vehicle (Lewis rats; 5 hr): 37.3* %
- activity at 25 µg/mL [1, 5]: 73.1%
- activity at 50 µg/mL [1, 5]: 75.8%
- activity at 100 µg/mL [1, 5]: 70.5%
- protective effect on rhIL-1α-mediated PG degradation / GAG release [1]: strong inhibitory effect

SMILES: Oc1cc(O)cc(/C=C/c2ccc(O)cc2O)c1 [Oxyresveratrol]
- Pain sensitivity, percent change of vehicle (Lewis rats; 1 hr): 53.3* %
- Paw edema, percent change of vehicle (Lewis rats; 1 hr): 44.7* %
- Pain sensitivity, percent change of vehicle (Lewis rats; 3 hr): 54.8* %
- Paw edema, percent change of vehicle (Lewis rats; 3 hr): 54.5* %
- Pain sensitivity, percent change of vehicle (Lewis rats; 5 hr): 38.5* %
- Paw edema, percent change of vehicle (Lewis rats; 5 hr): 38.3* %
- activity at 25 µg/mL [1, 5]: 59.8%
- protective effect on rhIL-1α-mediated PG degradation / GAG release [1]: strong inhibitory effect

SMILES: O=C(/C=C/c1ccc(O)c(O)c1)O[C@H](Cc1ccc(O)c(O)c1)C(=O)O [RA, Rosmarinic acid]
- Pain sensitivity (Analgesia), percent change vs. vehicle, 1 hr (Lewis rats; 200 mg/kg oral): 38.9%
- Paw Edema (Inflammation), percent change vs. vehicle, 1 hr (Lewis rats; 200 mg/kg oral): 29.9%
- Pain sensitivity (Analgesia), percent change vs. vehicle, 3 hr (Lewis rats; 200 mg/kg oral): 45.0%
- Paw Edema (Inflammation), percent change vs. vehicle, 3 hr (Lewis rats; 200 mg/kg oral): 35.7%
- Pain sensitivity (Analgesia), percent change vs. vehicle, 5 hr (Lewis rats; 200 mg/kg oral): 30.6%
- Paw Edema (Inflammation), percent change vs. vehicle, 5 hr (Lewis rats; 200 mg/kg oral): 34.6%
- analgesic and anti-inflammatory activity (Lewis rats): significant anti-inflammatory and analgesic activities

SMILES: CC1(C)C=Cc2c(ccc3c2OC[C@@H](c2ccc(O)cc2O)C3)O1 [glabridin]
- activity at 6.25 µg/mL [1, 2]: 66.1%
- activity at 12.5 µg/mL [1, 2]: 47.9%
- activity at 25 µg/mL [1, 2]: 47.5%
- activity at 50 µg/mL [1, 2]: 46.3%
